Numbers after ± are expanded uncertainties.
Settings: Liquid, Vibrating tube method

CCCC[N+]1(C)CCCC1.O=S(=O)([N-]S(=O)(=O)C(F)(F)F)C(F)(F)F
mass density [kg/m3]
Settings	100 kPa	1000 kPa	10000 kPa	20000 kPa	40000 kPa	60000 kPa	80000 kPa	100000 kPa	120000 kPa
278.15 K	1415.1 ± 1.4	1415.7 ± 1.4	1421.5 ± 1.4	1428 ± 1.5	1439.8 ± 1.6	1450.6 ± 1.8	1460.8 ± 2.1	1470.2 ± 2.3	1479.1 ± 2.6
298.15 K	1395.2 ± 1.4	1395.8 ± 1.4	1401.8 ± 1.4	1408.4 ± 1.5	1420.7 ± 1.6	1432.2 ± 1.8	1442.8 ± 2	1452.9 ± 2.3	1462.9 ± 2.6
313.15 K	1381.6 ± 1.4	1382.3 ± 1.4	1388.8 ± 1.4	1395.8 ± 1.5	1408.7 ± 1.6	1420.7 ± 1.8	1431.6 ± 2	1441.8 ± 2.2	1451.8 ± 2.5
333.15 K	1364 ± 1.4	1364.7 ± 1.4	1371.6 ± 1.4	1379 ± 1.5	1392.6 ± 1.6	1405.2 ± 1.7	1416.6 ± 2	1427.4 ± 2.2	1437.6 ± 2.5
348.15 K	1351.1 ± 1.4	1351.8 ± 1.4	1359.1 ± 1.4	1366.9 ± 1.5	1381.1 ± 1.6	1394 ± 1.7	1405.9 ± 1.9	1416.9 ± 2.2	1427.5 ± 2.4
373.15 K	1330.5 ± 10	1330.8 ± 10	1338.6 ± 10	1347 ± 10	1362.2 ± 10	1375.9 ± 10	1388.3 ± 10	1399.9 ± 10	1410.9 ± 10
398.15 K	1307.8 ± 10	1308.7 ± 10	1316.4 ± 10	1325.3 ± 10	1341.7 ± 10	1356.3 ± 10	1369.7 ± 10	1382 ± 10	1393.5 ± 10
